As a reminder, the IC50 is the midpoint of a concentration-inhibition curve.

This test has as its target T1, hP2X3 (human Purinergic P2X receptors subtype 3), clone B (Homo sapiens, UniProt P56373).
T1 sequence (P56373 1-397): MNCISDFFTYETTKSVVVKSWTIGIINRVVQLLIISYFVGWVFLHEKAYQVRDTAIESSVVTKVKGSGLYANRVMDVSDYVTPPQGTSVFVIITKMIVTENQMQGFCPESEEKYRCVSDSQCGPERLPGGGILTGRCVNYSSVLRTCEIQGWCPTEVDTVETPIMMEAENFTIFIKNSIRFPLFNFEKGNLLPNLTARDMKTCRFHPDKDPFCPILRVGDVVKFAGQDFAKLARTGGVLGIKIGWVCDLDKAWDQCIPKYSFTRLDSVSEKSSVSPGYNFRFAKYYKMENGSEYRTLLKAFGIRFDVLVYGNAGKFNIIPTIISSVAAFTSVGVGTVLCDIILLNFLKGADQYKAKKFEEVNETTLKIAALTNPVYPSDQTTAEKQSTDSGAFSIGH
Put plainly: hP2X3 FLIPR calcium (Fluo-4) antagonist assay, clone B. The note with it: Human P2X3 FLIPR Clone B IC50 (nM), RLE cells expressing hP2X3 clone B (NM_002559); agonist 500 nM α,β-methylene-ATP.
Protocol: The assay used a calcium indicator dye (Fluo-4) that emits fluorescence, the intensity of which is related to the concentration of calcium that entered the cell when P2X3 was activated and the channel opened. Activation of hP2X3 or rat P2X3 and rat P2X2/3 (from the coexpression of rat P2X3 and rat P2×2) is elicited the by P2X3 agonist α,β methylene-ATP (Sigma M6517), and the resulting fluorescence is measured with a FLIPR II™ instrument (Molecular Devices). Compounds are tested for their ability to inhibit the agonist-induced fluorescent signal.
For the rat P2X2/3 HEK-TREX cells, induction of the rat P2X3 expression is used to generate the rat P2X2/3 channels in HEK-TREX cells and performed by addition of 1 μg/mL tetracycline (Invitrogen) 24 h prior to compounds testing to the HEK-TREX expressing the rat P2X2 constitutively. On the day of the experiment, the cells and test compounds are prepared as follows. […] After preparing the compounds, the medium is removed from the cell plates by inversion. A loading solution of 30 μL assay buffer containing 4 μM of the calcium indicator dye FLUO-4 AM (Molecular Probes F14202) is added to each well using a Multidrop (Labsystems). […] The incubation is terminated by washing the cells four times in assay buffer using a Skatron Embla (Molecular Devices), and 25 μL of assay buffer was left in each well. Cell plates are then transferred to the FLIPR. Experiments are initiated by measuring a baseline fluorescence reading for 10 seconds, followed by the addition of 12.5 μL of cpds and data sampling for a total 280 seconds. The experiments are terminated by addition of 12.5 μL of a reference agonist (500 nM α,β-methylene-ATP) or buffer, producing a final assay volume of 50 μL followed by data sampling for an additional 280 seconds.
In P2X3 antagonist experiments (human and rat assays) data are analysed as normalised maximal peak fluorescence monitored following agonist addition and calculated as percent of relative fluorescent counts from control agonist. The dose-response antagonist inhibition curves are analyzed in a 4-parameter sigmoidal fit using a non-linear curve-fitting program (XLfit version 5.0.6, ID Business Solutions Limited, Guildford, UK).
Take `CC(=O)N1CCN(c2nc3c(c(N(C)Cc4ccc5ncccc5c4)n2)CN(C(C)C)C3=O)CC1` [Example 239, 2-(4-acetylpiperazin-1-yl)-6-isopropyl-4-(methyl(quinolin-6-ylmethyl)amino)-5H-pyrrolo[3,4-d]pyrimidin-7(6H)-one]: the IC50 stood at 1200 nM.

With `COc1ccccc1CC(C)(C)Nc1nc(N2CCN(C(C)=O)CC2)nc2c1CN(C(C)C)C2=O` [Example 195, 2-(4-acetylpiperazin-1-yl)-6-isopropyl-4-(1-(2-methoxyphenyl)-2-methylpropan-2-ylamino)-5H-pyrrolo[3,4-d]pyrimidin-7(6H)-one], the IC50 came to 18000 nM.

`CCC(C)N1Cc2c(NC(C)(C)Cc3ccc(F)cc3)nc(N3CCN(C(C)=O)CC3)nc2C1=O` (stereo not shown) [Example 312, 2-(4-acetylpiperazin-1-yl)-6-sec-butyl-4-(1-(4-fluorophenyl)-2-methylpropan-2-ylamino)-5H-pyrrolo[3,4-d]pyrimidin-7(6H)-one]: the IC50 amounted to 160 nM.

`CC(=O)N1CCN(c2nc3c(c(N4CCCC4c4ccc5ncccc5c4)n2)CN(C(C)C)C3=O)CC1` (single isomer, unassigned) [Example 285, 4-(4-acetylpiperazin-1-yl)-8-propan-2-yl-2-(2-quinolin-6-ylpyrrolidin-1-yl)-3,5,8-triazabicyclo[4.3.0]nona-1,3,5-trien-7-one]: the IC50 was 100 nM.

With `CC(=O)N1CCN(c2nc3c(c(N(C)Cc4cnc5ccccc5c4)n2)CN(C(C)C)C3=O)CC1` [Example 346, 2-(4-acetylpiperazin-1-yl)-6-isopropyl-4-(methyl(quinolin-3-ylmethyl)amino)-5H-pyrrolo[3,4-d]pyrimidin-7(6H)-one], the IC50 worked out at 47 nM.

In the case of `CC(=O)N1CCN(c2nc(N[C@@H]3CCC[C@H]3c3ccc(Cl)cc3)c3c(n2)C(=O)N(C(C)C)C3)CC1` (racemic) [Example 33, 2-(4-acetylpiperazin-1-yl)-4-{[trans-2-(4-chlorophenyl)cyclopentyl]amino}-6-isopropyl-5,6-dihydro-7H-pyrrolo[3,4-d]pyrimidin-7-one], the IC50 came out at 580 nM.

For the compound `CC(C)N1Cc2c(NCc3cnc4ccccc4c3)nc(N3CCC(F)(F)C3)nc2C1=O` [Example 216, 2-(3,3-difluoropyrrolidin-1-yl)-6-isopropyl-4-(3-quinolymethylamino)-5H-pyrrolo[3,4-d]pyrimidin-7-one], the IC50 is 680 nM.

For `CC(=O)N1CCN(c2nc(NCCc3ccc(C)cc3C)c3c(n2)C(=O)N(C(C)C)C3)CC1` [Example 56, 2-(4-acetylpiperazin-1-yl)-4-{[2-(2,4-dimethylphenyl)ethyl]amino}-6-isopropyl-5,6-dihydro-7H-pyrrolo[3,4-d]pyrimidin-7-one], the IC50 amounted to 2700 nM.

For the compound `CC(C)N1Cc2c(NC(C)(C)Cc3ccc(Cl)cc3)nc(N3C[C@@H](C)O[C@@H](C)C3)nc2C1=O` [Example 61, 4-{[2-(4-chlorophenyl)-1,1-dimethylethyl]amino}-2-[(2R,6S)-2,6-dimethylmorpholin-4-yl]-6-isopropyl-5,6-dihydro-7H-pyrrolo[3,4-d]pyrimidin-7-one], the IC50 worked out at 1400 nM.

On to `CC(=O)NC1CCN(c2nc(NCc3cnc4ccccc4c3)c3c(n2)C(=O)N(C(C)C)C3)C1` (stereo not shown) [Example 207, N-(1-(6-isopropyl-7-oxo-4-(quinolin-3-ylmethylamino)-6,7-dihydro-5H-pyrrolo[3,4-d]pyrimidin-2-yl)pyrrolidin-3-yl)acetamide], for which the IC50 stood at 7100 nM.

Consider `CC(C)N1Cc2c(NCc3cnc4ccccc4c3)nc(N3CCN(C(=O)C4CC4)CC3)nc2C1=O` [Example 222, 2-[4-(cyclopropylcarbonyl)piperazin-1-yl]-6-(1-methylethyl)-4-[(quinolin-3-ylmethyl)amino]-5,6-dihydro-7H-pyrrolo[3,4-d]pyrimidin-7-one], for which the IC50 turned out to be 6300 nM.

For the compound `CCN1CCN(c2nc(NCC(c3ccccc3)c3ccccc3)c3c(n2)C(=O)N(C(C)C)C3)CC1` [Example 107, 4-(2,2-Diphenyl-ethylamino)-2-(4-ethyl-piperazin-1-yl)-6-isopropyl-5,6-dihydro-pyrrolo[3,4-d]pyrimidin-7-one], the IC50 was found to be 2300 nM.

Turning to `CC(=O)N1CCN(c2nc(NC3CCc4cc(Cl)ccc43)c3c(n2)C(=O)N(C(C)C)C3)CC1` (stereo not shown) [Example 133, 2-(4-Acetylpiperazin-1-yl)-4-(5-chloro-2,3-dihydro-1H-inden-1-ylamino)-6-isopropyl-5H-pyrrolo[3,4-d]pyrimidin-7(6H)-one], the IC50 came to 4200 nM.

`CC(=O)N1CCN(c2nc(N[C@H](C)c3ccc4c(c3)CCC4)c3c(n2)C(=O)N(C(C)C)C3)CC1` [Example 172, (R)-2-(4-acetylpiperazin-1-yl)-4-(1-(2,3-dihydro-1H-inden-5-yl)ethylamino)-6-isopropyl-5H-pyrrolo[3,4-d]pyrimidin-7(6H)-one]: the IC50 is 44 nM.

On to `CC(=O)N1CCN(c2nc(NCc3cc(-c4ccccc4)nn3C)c3c(n2)C(=O)N(C(C)C)C3)CC1` [Example 154, 4-(4-acetylpiperazin-1-yl)-2-[(2-methyl-5-phenyl-pyrazol-3-yl)methylamino]-8-propan-2-yl-3,5,8-triazabicyclo[4.3.0]nona-1,3,5-trien-7-one], for which the IC50 was 160 nM.

`Cc1ccc(C(Nc2nc(NCCN(C)C)nc3c2CN(C(C)C)C3=O)c2ccccc2)cc1` (stereo not shown) [Example 7, 2-{[2-(dimethylamino)ethyl]amino}-6-isopropyl-4-{[(4-methylphenyl)(phenyl)methyl]amino}-5,6-dihydro-7H-pyrrolo[3,4-d]pyrimidin-7-one]: the IC50 came out at 85 nM.

On to `CC(=O)N1CCN(c2nc(N[C@H](C)c3ccc4c(c3)CCO4)c3c(n2)C(=O)N(C(C)C)C3)CC1` [Example 160, (R)-2-(4-acetylpiperazin-1-yl)-4-(1-(2,3-dihydrobenzofuran-5-yl)ethylamino)-6-isopropyl-5H-pyrrolo[3,4-d]pyrimidin-7(6H)-one], for which the IC50 worked out at 320 nM.

Consider `CC(C)N1Cc2c(NCc3cnc4ccccc4c3)nc(NC3CN4CCC3CC4)nc2C1=O` (stereo not shown) [Example 214, 6-isopropyl-4-(3-quinolylmethylamino)-2-(quinuclidin-3-ylamino)-5H-pyrrolo[3,4-d]pyrimidin-7-one], for which the IC50 came to 2300 nM.

As for `CCCN1Cc2c(NC(c3ccccc3)c3ccccc3)nc(N3CCOCC3)nc2C1=O` [Example 110, 4-[(diphenylmethyl)amino]-2-morpholin-4-yl-6-propyl-5,6-dihydro-7H-pyrrolo[3,4-d]pyrimidin-7-one], the IC50 worked out at 3300 nM.

As to `CC(C)N1Cc2c(NCc3cnc4ccccc4c3)nc(N3CCC(C(N)=O)CC3)nc2C1=O` [Example 209, 1-(6-isopropyl-7-oxo-4-(quinolin-3-ylmethylamino)-6,7-dihydro-5H-pyrrolo[3,4-d]pyrimidin-2-yl)piperidine-4-carboxamide], the IC50 was found to be 2800 nM.

`CC(C)N1Cc2c(NCc3cnc4ccccc4c3)nc(N3CCC(N(C)C)CC3)nc2C1=O` [Example 218]: the IC50 came out at 7800 nM.

Regarding `CCOc1cc([C@@H](C)Nc2nc(N3CCN(C(C)=O)CC3)nc3c2CN(C(C)C)C3=O)ccc1C` [Example 174, (R)-2-(4-acetylpiperazin-1-yl)-4-(1-(3-ethoxy-4-methylphenyl)ethylamino)-6-isopropyl-5H-pyrrolo[3,4-d]pyrimidin-7(6H)-one], the IC50 was 600 nM.

The record behind these values is patent US20090099195A1 (ASTRAZENECA AB, priority 2007, published 2009).
